IC50 data for ten molecules are collected here from US8785457B2 (Cellzome Limited, priority 2009, dated 2014).

One assay deals with T1, mTOR (Homo sapiens, UniProt P42345).
T1 construct: endogenous in cells; host or cells: Jurkat, clone E6-1 (ATCC TIB-152) cell lysate
Briefly: mTOR kinobeads assay (competitive binding in Jurkat cell lysate, immunodetection). As to conditions: kinobeads assay. On the procedure:
The compounds of the present invention as described were tested in the mTOR kinobeads assay as described below. […] After the incubation time the beads with captured proteins were separated from the lysate. Bound proteins were then eluted and the presence of mTOR, PI3K delta (PI3 Kd) and DNA-dependent protein kinase (DNA-PK) was detected and quantified using a specific antibody in a dot blot procedure and the Odyssey infrared detection system.
(§1) The kinobeads assay was performed as a competitive binding assay in which test compounds were added directly into a cell lysate. Test compounds (at various concentrations) and the affinity matrix (beads with immobilized phenylmorpholin-chromen ligand) were added to cell lysate aliquots and allowed to bind to the proteins contained in the lysate sample. After the incubation time the beads with captured proteins were separated from the lysate. Bound proteins were then eluted and the presence of kinases was detected and quantified using a multiplexed immunodetection format. Dose response curves for individual kinases were generated and IC50 values calculated.
(§2) 5×DP buffer: 250 mM Tris-HCl pH 7.4, 25% Glycerol, 7.5 mM MgCl2, 750 mM NaCl, 5 mM Na3VO4, filter the 5×-lysis buffer through 0.22 μm filter and store in aliquots at −80° C. The 5×DP buffer is diluted to 1×DP buffer containing 1 mM DTT and 25 mM NaF.
Stock solutions of test compounds were prepared in DMSO. In a 96 well plate 30 μl solution of diluted test compounds at 5 mM in DMSO were prepared. Starting with this solution a 1:3 dilution series (9 steps) was prepared. For control experiments (no test compound) a buffer containing 2% DMSO was used.
Jurkat cells were homogenized in a Potter S homogenizer in lysis buffer: 50 mM Tris-HCl, 0.8% NP40, 5% glycerol, 150 mM NaCl, 1.5 mM MgCl2, 25 mM NaF, 1 mM sodium vanadate, 1 mM DTT, pH 7.5. […] The material was dounced 10 times using a mechanized POTTER S, transferred to 50 ml falcon tubes, incubated for 30 minutes on ice and spun down for 10 min at 20,000 g at 4° C. (10,000 rpm in Sorvall SLA600, precooled). […] (33.500 rpm in Ti50.2, precooled). The supernatant was transferred again to a fresh 50 ml falcon tube, the protein concentration was determined by a Bradford assay (BioRad) and samples containing 50 mg of protein per aliquot were prepared. The samples were immediately used for experiments or frozen in liquid nitrogen and stored frozen at −80° C.
Jurkat cell lysate (approximately 50 mg protein per plate) was thawed in a water bath at room temperature and then kept on ice. […] The diluted cell lysate was stored on ice.
Plates were sealed and incubated for two hours in a cold room on a Thermoxer with shaking (750 rpm). Afterwards the plate was washed twice with 230 μl washing buffer (1×DP 0.4% NP40). […] The eluate was frozen quickly at −80° C. and stored at −20° C.
The kinases in the eluates were detected and quantified by spotting on Nitrocellulose membranes and using a first antibody directed against the kinase of interest and a fluorescently labeled secondary antibody (anti-mouse or anti-rabbit IRDye™ antibodies from Rockland).
Afterwards the membrane was washed three times for 10 minutes with PBS buffer containing 0.1% Tween 20 at room temperature. […] Afterwards the membrane was washed three times for 10 minutes each with 1×PBS buffer containing 0.1% Tween 20 at room temperature. Then the membrane was rinsed once with PBS buffer to remove residual Tween 20. The membrane was kept in PBS buffer at 4° C. and then scanned with the Odyssey instrument. Fluorescence signals were recorded and analysed according to the instructions of the manufacturer.

The target in assay [1] is T2, DNA-dependent protein kinase (DNA-PK) (Homo sapiens, UniProt P78527).
T2 construct: endogenous in cells; host or cells: Jurkat, clone E6-1 (ATCC TIB-152) cell lysate
In words: kinobeads assay, DNA-PK. Type of assay: binding. The note with it: kinobeads assay. On the procedure: (§3) The compounds of the present invention as described were tested in the mTOR kinobeads assay as described below. Briefly, test compounds (at various concentrations) and the affinity matrix with the immobilized phenylmorpholin-chromen ligand (8-(4-aminomethyl-phenyl)-2-morpholin-4-yl-chromen-4-one) were added to cell lysate aliquots and allowed to bind to the proteins in the lysate sample. After the incubation time the beads with captured proteins were separated from the lysate. Bound proteins were then eluted and the presence of mTOR, PI3K delta (PI3 Kd) and DNA-dependent protein kinase (DNA-PK) was detected and quantified using a specific antibody in a dot blot procedure and the Odyssey infrared detection system. Kinobeads assays for PI3K (WO-A 2008/015013) and for kinase selectivity profiling (WO 2006/134056) have been previously described.
as §1
(§4) The affinity matrix (beads with immobilized phenylmorpholin-chromen ligand) was washed two times with 15 ml of 1×DP buffer containing 0.2% NP40 (IGEPAL® CA-630, Sigma, #13021) and then resupended in 5.5 ml of 1×DP buffer containing 0.2% NP40 (10% beads slurry).
as §2
(§5) Stock solutions of test compounds were prepared in DMSO. In a 96 well plate 30 μl solution of diluted test compounds at 5 mM in DMSO were prepared. Starting with this solution a 1:3 dilution series (9 steps) was prepared. For control experiments (no test compound) a buffer containing 2% DMSO was used. Compound CZC00018052 served as a positive control (PI-103; Calbiochem catalogue number 528100).
(§6) Jurkat cells (ATCC catalogue number TIB-152 Jurkat, clone E6-1) were grown in 1 liter Spinner flasks (Integra Biosciences, #182101) in suspension in RPMI 1640 medium (Invitrogen, #21875-034) supplemented with 10% Fetal Bovine Serum (Invitrogen) at a density between 0.15×10^6 and 1.2×10^6 cells/ml. Cells were harvested by centrifugation, washed once with 1×PBS buffer (Invitrogen, #14190-094) and cell pellets were frozen in liquid nitrogen and subsequently stored at −80° C.
(§7) Jurkat cells were homogenized in a Potter S homogenizer in lysis buffer: 50 mM Tris-HCl, 0.8% NP40, 5% glycerol, 150 mM NaCl, 1.5 mM MgCl2, 25 mM NaF, 1 mM sodium vanadate, 1 mM DTT, pH 7.5. One complete EDTA-free tablet (protease inhibitor cocktail, Roche Diagnostics, 1873580) per 25 ml buffer was added. The material was dounced 10 times using a mechanized POTTER S, transferred to 50 ml falcon tubes, incubated for 30 minutes on ice and spun down for 10 min at 20,000 g at 4° C. (10,000 rpm in Sorvall SLA600, precooled). The supernatant was transferred to an ultracentrifuge (UZ)-polycarbonate tube (Beckmann, 355654) and spun for 1 hour at 100.000 g at 4° C. (33.500 rpm in Ti50.2, precooled). The supernatant was transferred again to a fresh 50 ml falcon tube, the protein concentration was determined by a Bradford assay (BioRad) and samples containing 50 mg of protein per aliquot were prepared. The samples were immediately used for experiments or frozen in liquid nitrogen and stored frozen at −80° C. […]

In a further assay the target is T3, PI3K delta (PI3 Kd) (Homo sapiens, UniProt O00329).
T3 construct: endogenous in cells; host or cells: Jurkat, clone E6-1 (ATCC TIB-152) cell lysate
Briefly: kinobeads assay, PI3K delta. Type of assay: binding. The note with it: kinobeads assay, read-out: Inhibition values (IC50) PI3Kd. On the procedure:
as §3, §1, §4, §2, §5, §6, §7

The mark [2] stands for this setting: Table 4, read-out: Inhibition values (IC50) mTor.
Where [3] appears, read: Table 6, read-out: Inhibition values (IC50) mTOR.
Setting [4] is: Table 4, read-out: Inhibition values (IC50) DNA-PK.
[5] abbreviates: Table 6, read-out: Inhibition values (IC50) DNAPK.

Molecules are shown by their SMILES. Read-outs that look alike come from different tables or passages of the source.

T2 sequence (P78527 whole entry): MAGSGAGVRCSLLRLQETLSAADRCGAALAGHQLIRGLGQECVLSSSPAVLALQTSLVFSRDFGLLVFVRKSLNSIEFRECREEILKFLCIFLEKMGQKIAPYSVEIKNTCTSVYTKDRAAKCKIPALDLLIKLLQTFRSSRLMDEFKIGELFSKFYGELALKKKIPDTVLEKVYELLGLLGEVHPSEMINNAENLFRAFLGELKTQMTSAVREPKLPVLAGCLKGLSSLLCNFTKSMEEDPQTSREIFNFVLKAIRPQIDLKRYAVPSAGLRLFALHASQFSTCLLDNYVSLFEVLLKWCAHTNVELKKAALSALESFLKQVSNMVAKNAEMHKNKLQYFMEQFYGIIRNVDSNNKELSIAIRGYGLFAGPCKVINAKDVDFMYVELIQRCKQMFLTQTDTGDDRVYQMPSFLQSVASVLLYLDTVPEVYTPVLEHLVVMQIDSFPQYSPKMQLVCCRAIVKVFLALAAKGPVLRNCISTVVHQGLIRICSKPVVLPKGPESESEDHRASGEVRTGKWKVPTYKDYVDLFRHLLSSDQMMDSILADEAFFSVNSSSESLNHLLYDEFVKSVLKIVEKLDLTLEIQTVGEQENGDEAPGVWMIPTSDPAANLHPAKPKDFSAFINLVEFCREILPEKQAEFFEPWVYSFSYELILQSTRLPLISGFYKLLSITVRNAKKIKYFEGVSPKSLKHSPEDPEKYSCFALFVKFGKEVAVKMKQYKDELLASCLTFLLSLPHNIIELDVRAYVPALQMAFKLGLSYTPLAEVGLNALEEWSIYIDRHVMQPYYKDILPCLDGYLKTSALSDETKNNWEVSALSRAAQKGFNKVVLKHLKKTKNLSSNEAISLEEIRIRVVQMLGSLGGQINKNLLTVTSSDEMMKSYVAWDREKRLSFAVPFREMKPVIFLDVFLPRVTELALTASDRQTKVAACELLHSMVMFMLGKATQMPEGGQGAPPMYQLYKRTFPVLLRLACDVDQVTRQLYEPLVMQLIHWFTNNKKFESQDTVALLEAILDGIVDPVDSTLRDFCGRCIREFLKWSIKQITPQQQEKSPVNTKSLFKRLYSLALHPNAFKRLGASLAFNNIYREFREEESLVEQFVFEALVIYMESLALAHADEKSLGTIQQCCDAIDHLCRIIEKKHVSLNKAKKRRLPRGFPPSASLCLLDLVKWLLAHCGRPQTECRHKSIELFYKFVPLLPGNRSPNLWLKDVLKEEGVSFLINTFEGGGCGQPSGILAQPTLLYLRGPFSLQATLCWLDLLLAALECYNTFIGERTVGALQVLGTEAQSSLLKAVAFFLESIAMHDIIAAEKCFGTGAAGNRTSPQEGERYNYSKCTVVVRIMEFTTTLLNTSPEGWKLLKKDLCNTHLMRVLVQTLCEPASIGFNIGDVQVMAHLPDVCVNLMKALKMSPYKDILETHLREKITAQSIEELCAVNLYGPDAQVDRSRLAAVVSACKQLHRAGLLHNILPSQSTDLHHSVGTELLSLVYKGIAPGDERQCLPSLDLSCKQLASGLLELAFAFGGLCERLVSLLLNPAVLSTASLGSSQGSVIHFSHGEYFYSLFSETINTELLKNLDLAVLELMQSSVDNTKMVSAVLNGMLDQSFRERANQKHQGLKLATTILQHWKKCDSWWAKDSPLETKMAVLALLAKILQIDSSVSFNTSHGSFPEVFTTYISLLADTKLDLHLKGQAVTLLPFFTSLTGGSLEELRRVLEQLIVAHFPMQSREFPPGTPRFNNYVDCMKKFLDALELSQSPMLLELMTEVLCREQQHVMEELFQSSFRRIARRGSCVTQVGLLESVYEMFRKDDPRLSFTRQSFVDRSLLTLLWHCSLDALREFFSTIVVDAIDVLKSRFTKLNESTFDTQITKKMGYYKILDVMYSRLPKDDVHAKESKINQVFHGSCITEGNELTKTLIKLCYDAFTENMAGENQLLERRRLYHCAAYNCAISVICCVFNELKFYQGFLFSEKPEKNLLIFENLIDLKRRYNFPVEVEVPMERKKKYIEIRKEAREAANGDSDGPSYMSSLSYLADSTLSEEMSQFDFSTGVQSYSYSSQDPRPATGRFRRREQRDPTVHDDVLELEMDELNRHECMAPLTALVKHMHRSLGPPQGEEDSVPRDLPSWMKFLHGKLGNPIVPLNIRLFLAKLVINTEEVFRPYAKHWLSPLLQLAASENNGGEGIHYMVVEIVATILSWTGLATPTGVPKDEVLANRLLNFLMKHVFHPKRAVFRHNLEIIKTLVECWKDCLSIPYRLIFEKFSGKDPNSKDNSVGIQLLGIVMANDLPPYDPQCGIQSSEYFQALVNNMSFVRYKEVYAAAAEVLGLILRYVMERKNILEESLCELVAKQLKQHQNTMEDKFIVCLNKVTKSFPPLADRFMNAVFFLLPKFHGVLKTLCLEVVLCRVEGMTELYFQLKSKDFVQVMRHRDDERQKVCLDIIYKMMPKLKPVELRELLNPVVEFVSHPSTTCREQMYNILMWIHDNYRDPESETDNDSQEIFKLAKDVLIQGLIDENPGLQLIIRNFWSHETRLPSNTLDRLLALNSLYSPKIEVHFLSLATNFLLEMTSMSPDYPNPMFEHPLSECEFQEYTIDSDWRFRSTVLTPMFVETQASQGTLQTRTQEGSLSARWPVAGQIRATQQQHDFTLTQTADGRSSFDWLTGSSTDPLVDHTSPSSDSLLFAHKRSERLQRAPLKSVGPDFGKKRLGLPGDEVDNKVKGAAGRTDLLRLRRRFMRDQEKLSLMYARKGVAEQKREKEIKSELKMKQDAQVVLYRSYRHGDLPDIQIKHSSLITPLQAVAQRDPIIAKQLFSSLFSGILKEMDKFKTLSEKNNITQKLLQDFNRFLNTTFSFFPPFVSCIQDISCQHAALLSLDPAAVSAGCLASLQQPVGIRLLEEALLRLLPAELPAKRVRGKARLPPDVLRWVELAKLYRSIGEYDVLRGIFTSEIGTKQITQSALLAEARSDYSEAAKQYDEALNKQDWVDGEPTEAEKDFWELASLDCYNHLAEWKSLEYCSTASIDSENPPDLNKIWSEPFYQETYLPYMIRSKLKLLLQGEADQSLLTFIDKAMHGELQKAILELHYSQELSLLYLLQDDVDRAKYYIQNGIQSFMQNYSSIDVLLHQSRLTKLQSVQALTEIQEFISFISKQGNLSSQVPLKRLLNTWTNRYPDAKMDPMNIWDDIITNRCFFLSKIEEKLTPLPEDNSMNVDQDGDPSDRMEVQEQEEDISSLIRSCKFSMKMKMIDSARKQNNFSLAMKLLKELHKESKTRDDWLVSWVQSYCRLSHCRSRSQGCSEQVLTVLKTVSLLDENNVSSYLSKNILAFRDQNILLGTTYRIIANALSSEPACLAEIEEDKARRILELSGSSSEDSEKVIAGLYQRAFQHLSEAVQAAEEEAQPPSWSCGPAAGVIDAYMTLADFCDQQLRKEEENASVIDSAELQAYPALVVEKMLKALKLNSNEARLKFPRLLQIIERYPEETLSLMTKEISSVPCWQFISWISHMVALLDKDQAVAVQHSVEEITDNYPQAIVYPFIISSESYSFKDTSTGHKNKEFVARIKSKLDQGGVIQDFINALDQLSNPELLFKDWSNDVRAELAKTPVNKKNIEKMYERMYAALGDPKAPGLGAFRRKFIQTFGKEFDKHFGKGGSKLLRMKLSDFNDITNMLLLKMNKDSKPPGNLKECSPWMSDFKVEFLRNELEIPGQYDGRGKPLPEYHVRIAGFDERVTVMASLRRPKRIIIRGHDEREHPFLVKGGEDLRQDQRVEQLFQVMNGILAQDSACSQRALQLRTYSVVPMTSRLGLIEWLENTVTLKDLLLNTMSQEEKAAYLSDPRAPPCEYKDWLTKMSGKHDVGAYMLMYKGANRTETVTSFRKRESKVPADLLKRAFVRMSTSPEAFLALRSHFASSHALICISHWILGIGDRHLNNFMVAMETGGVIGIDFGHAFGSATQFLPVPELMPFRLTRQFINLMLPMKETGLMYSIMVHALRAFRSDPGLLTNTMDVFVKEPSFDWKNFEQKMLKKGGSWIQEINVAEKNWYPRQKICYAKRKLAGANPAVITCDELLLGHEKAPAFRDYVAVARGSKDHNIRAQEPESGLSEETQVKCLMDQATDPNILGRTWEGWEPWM

On to `CCNC(=O)Nc1ccc(-c2nc3c(c(N4CCOC[C@@H]4C)n2)CCN(Cc2ccc(F)cc2)C3)cc1` [Example 31, (S)-1-ethyl-3-(4-(7-(4-fluorobenzyl)-4-(3-methylmorpholino)-5,6,7,8-tetrahydropyrido[3,4-d]pyrimidin-2-yl)phenyl)urea], for which the IC50 on mTOR (setting [2]) was 0.1 to 1 µM; on mTOR (setting [3]), 1 to 10 µM; in assay [1] (setting [4]) it was above 10 µM; in assay [1] (setting [5]) it was above 10 µM; on PI3K delta (PI3 Kd) (Table 4), above 10 µM; at PI3K delta (PI3 Kd) (Table 6), above 10 µM.
In the case of `CCNC(=O)Nc1ccc(-c2nc3c(c(N4CCOC[C@@H]4C)n2)CNC3)cc1` [Example 7, (S)-1-ethyl-3-(4-(4-(3-methylmorpholino)-6,7-dihydro-5H-pyrrolo[3,4-d]pyrimidin-2-yl)phenyl)urea], the IC50 on mTOR (setting [2]) was below 0.1 µM; on mTOR (setting [3]) it was below 0.1 µM; in assay [1] (setting [4]), above 10 µM; in assay [1] (setting [5]) it was above 10 µM; on PI3K delta (PI3 Kd) (Table 4), above 10 µM; on PI3K delta (PI3 Kd) (Table 6), above 10 µM.
`C[C@@H]1COCCN1c1nc(-c2ccc(NC(=O)NC3CC3)cc2)nc2c1CNC2` [Example 9, (R)-1-cyclopropyl-3-(4-(4-(3-methylmorpholino)-6,7-dihydro-5H-pyrrolo[3,4-d]pyrimidin-2-yl)phenyl)urea]: the IC50 at mTOR (setting [2]) was below 0.1 µM; on mTOR (setting [3]), below 0.1 µM; in assay [1] (setting [4]) it was above 10 µM; in assay [1] (setting [5]), above 10 µM; at PI3K delta (PI3 Kd) (Table 4), above 10 µM; on PI3K delta (PI3 Kd) (Table 6), above 10 µM.
In the case of `CCNC(=O)Nc1ccc(-c2nc3c(c(N4CCOCC4)n2)CNC3)cc1` [Example 14, 1-ethyl-3-(4-(4-morpholino-6,7-dihydro-5H-pyrrolo[3,4-d]pyrimidin-2-yl)phenyl)urea], the IC50 in assay [1] (setting [4]) is above 10 µM; in assay [1] (setting [5]), above 10 µM; at PI3K delta (PI3 Kd) (Table 4) it was 1 to 10 µM; at PI3K delta (PI3 Kd) (Table 6), 1 to 10 µM.
Turning to `COCCCNC(=O)Nc1ccc(-c2nc3c(c(N4CCOC[C@@H]4C)n2)CN(C)C3)cc1` [Example 53, (S)-1-(3-methoxypropyl)-3-(4-(6-methyl-4-(3-methylmorpholino)-6,7-dihydro-5H-pyrrolo[3,4-d]pyrimidin-2-yl)phenyl)urea], the half-inhibitory concentration (IC50) on mTOR (setting [2]) was 0.1 to 1 µM; at mTOR (setting [3]) it was 0.1 to 1 µM; in assay [1] (setting [4]), above 10 µM; in assay [1] (setting [5]), above 10 µM.
As to `CNC(=O)Nc1ccc(-c2nc3c(c(N4CCOC[C@@H]4C)n2)CNC3)cc1` [Example 4, (S)-1-methyl-3-(4-(4-(3-methylmorpholino)-6,7-dihydro-5H-pyrrolo[3,4-d]pyrimidin-2-yl)phenyl)urea], the IC50 on mTOR (setting [2]) is below 0.1 µM; on mTOR (setting [3]) it was below 0.1 µM; in assay [1] (setting [4]), above 10 µM; in assay [1] (setting [5]), above 10 µM; on PI3K delta (PI3 Kd) (Table 4), 1 to 10 µM; on PI3K delta (PI3 Kd) (Table 6), 1 to 10 µM.
For `C[C@H]1COCCN1c1nc(-c2ccc(NC(=O)NC3CC3)cc2)nc2c1CNC2` [Example 3, (S)-1-cyclopropyl-3-(4-(4-(3-methylmorpholino)-6,7-dihydro-5H-pyrrolo[3,4-d]pyrimidin-2-yl)phenyl)urea], the IC50 on mTOR (setting [2]) was below 0.1 µM; at mTOR (setting [3]), below 0.1 µM; in assay [1] (setting [4]), above 10 µM; in assay [1] (setting [5]) it was above 10 µM; on PI3K delta (PI3 Kd) (Table 4), above 10 µM; on PI3K delta (PI3 Kd) (Table 6) it was above 10 µM.
For the molecule `C[C@H]1COCCN1c1nc(-c2ccc(NC(=O)NCCCO)cc2)nc2c1CN(C)C2` [Example 51, (S)-1-(3-hydroxypropyl)-3-(4-(6-methyl-4-(3-methylmorpholino)-6,7-dihydro-5H-pyrrolo[3,4-d]pyrimidin-2-yl)phenyl)urea], the IC50 on mTOR (setting [2]) is below 0.1 µM; at mTOR (setting [3]), below 0.1 µM; in assay [1] (setting [4]), above 10 µM; in assay [1] (setting [5]) it was above 10 µM.
Take `C[C@H]1COCCN1c1nc(-c2ccc(NC(N)=O)cc2)nc2c1CN(C=O)C2` [Example 6, (S)-1-(4-(6-formyl-4-(3-methylmorpholino)-6,7-dihydro-5H-pyrrolo[3,4-d]pyrimidin-2-yl)phenyl)urea]: the 50% inhibitory concentration (IC50) is 0.1 to 1 µM on mTOR (setting [2]); 0.1 to 1 µM on mTOR (setting [3]); above 10 µM in assay [1] (setting [4]); above 10 µM in assay [1] (setting [5]); 1 to 10 µM on PI3K delta (PI3 Kd) (Table 4); 1 to 10 µM at PI3K delta (PI3 Kd) (Table 6).
Consider `CNC(=O)Nc1ccc(-c2nc3c(c(N4CCOC[C@@H]4C)n2)CNCC3)cc1` [Example 10, (S)-1-methyl-3-(4-(4-(3-methylmorpholino)-5,6,7,8-tetrahydropyrido[4,3-d]pyrimidin-2-yl)phenyl)urea], for which the IC50 on mTOR (setting [2]) was 0.1 to 1 µM; on mTOR (setting [3]), 0.1 to 1 µM; in assay [1] (setting [4]), above 10 µM; in assay [1] (setting [5]), above 10 µM; on PI3K delta (PI3 Kd) (Table 4) it was above 10 µM; on PI3K delta (PI3 Kd) (Table 6), above 10 µM.
